# Source: patent US6180622A, “Imidazo[5,1-b]thiazol-3-yl carbapenem antimicrobials” (priority 1996, dated 2001)
# Where two headings read alike, the source gives them in different places.
# Key:
# [1] = Stability against DHP-I (pig); assay type: in vitro ADME; conditions: kidney dhp-i, 100 μg (potency)/ml, 37° C., pH 7.0, read-out: residue (%) of the carbapenem derivative
# Procedure: (§1) The stability of representative compounds, among the novel carbapenem derivatives of the present invention, against kidney dehydropeptidase-I (DHP-I) of a pig and a mouse was measured, and the residue (%) of the carbapenem derivatives three hr after the initiation of the test is summarized in Table 6.
# (§2) 1.5 g of a kidney acetone powder (manufactured by Sigma) Porcine Type II (Lot. 33H7225) was suspended in 100 ml of 50 mM Tris-HCl buffer (pH 7.0) containing 20% butanol, and the suspension was stirred at 5° C. for 48 hr. The suspension was then dialyzed against 50 mM Tris-HCl buffer (pH 7.0) (a cellulose tube 30/32 Viskase Sales Corp.) until the odor of butanol disappeared, thereby removing butanol. The dialyzate is centrifuged at 10000×g (KUBOTA 6800) for 20 min, and the supernatant was obtained as a partially purified DHP-I. This partially purified DHP-I was subdivided and stored at -80° C. The above procedure was repeated, except that 1.5 g of Mouse (Lot. 23F8105) was used. Thus, a partially purified DHP-I was prepared and stored.
# (§3) For the carbapenem as the substrate agent, a solution (2000 μg (potency)/ml) was prepared using sterilized, purified water. For the sample solution, the carbapenem (2000 μg (potency)/ml) solution was added to the partially purified DHP-I of each animal to a final concentration of 100 μg (potency)/ml). For the blank, 50 mM Tris-HCl buffer (pH 7.0) was used instead of the partially purified DHP-I of each animal. The reaction was allowed to proceed at 37° C. for 3 hr, and a given amount of the reaction mixture was sampled. Methanol in the same amount as the sampled reaction mixture was added under ice cooling to terminate the reaction. The reaction mixture was filtered through a filter (Sanprep LCR 13-LH manufactured by MILLIPORE) and subjected to HPLC (column: CAPCELL PACK C18SG120, manufactured by Shiseido Co., Ltd.; detection: UV; mobile layer: acetonitrile/10 mM aqueous acetic acid solution) to determined the residue (%).
# (§4) Residue (%)=(Sample Peak Area/Blank Peak Area)×100
# [2] = Stability against DHP-I (mouse); assay type: in vitro ADME; conditions: kidney dhp-i, 100 μg (potency)/ml, 37° C., pH 7.0, read-out: residue (%) of the carbapenem derivative
# Procedure: as §1, §2, §3, §4
# K. pneumoniae PCI602 = experiment: Antimicrobial activity (minimum inhibitory concentration); assay type: cell-based; conditions: Klebsiella pneumoniae
# Procedure: (§5) For representative compounds among the novel carbapenem derivatives of the present invention, the minimum inhibitory concentration (MIC, μg/ml) against various pathogenic bacteria was measured in accordance with a method described in CHEMOTHERAPY, Vol. 16, No. 1, 99 (1968).
# C. freundii GN346 = experiment: as above; assay type: cell-based; conditions: Citrobacter freundii
# Procedure: as §5
# S. marcescens No. 1 = experiment: as above; assay type: cell-based; conditions: Serratia marcescens
# Procedure: as §5
# E. coli NIHJ JC-2 = experiment: as above; assay type: cell-based; conditions: Escherichia coli, NIHJJC2
# Procedure: as §5
# S. aureus M126 = experiment: as above; assay type: cell-based; conditions: Staphylococcus aureus; S. aureus M126, highly meticillin-resistant strain
# Procedure: as §5
# M. morganii 1510 = experiment: as above; assay type: cell-based; conditions: Morganella morganii
# Procedure: as §5
# E. coli GN206 = experiment: as above; assay type: cell-based; conditions: Escherichia coli
# Procedure: as §5
# Ps. aeruginosa GN10362 = experiment: as above; assay type: cell-based; conditions: Pseudomonas aeruginosa
# Procedure: as §5
# E. cloacae G-0008 = experiment: as above; assay type: cell-based; conditions: Enterobacter cloacae, G0008
# Procedure: as §5
# P. vulgaris GN76 = experiment: as above; assay type: cell-based; conditions: Proteus vulgaris
# Procedure: as §5
# S. aureus 209P JC-1 = experiment: as above; assay type: cell-based; conditions: Staphylococcus aureus
# Procedure: as §5
# [3] = Ps. aeruginosa GN10362, read-out: MIC
# [4] = P. vulgaris GN76, read-out: MIC
remaining at 3 h [1] [%],remaining at 3 h [2] [%],MIC (K. pneumoniae PCI602) [µg/mL],MIC (C. freundii GN346) [µg/mL],MIC (S. marcescens No. 1) [µg/mL],MIC (E. coli NIHJ JC-2) [µg/mL],MIC (S. aureus M126) [µg/mL],MIC (M. morganii 1510) [µg/mL],MIC (E. coli GN206) [µg/mL],MIC (E. cloacae G-0008) [µg/mL],MIC (S. aureus 209P JC-1) [µg/mL],MIC (Ps. aeruginosa GN10362; [3]) [µg/mL],MIC (P. vulgaris GN76; [4]) [µg/mL],Structure (SMILES),MIC (Ps. aeruginosa GN10362; GN10362) [µg/mL],MIC (P. vulgaris GN76; GN76) [µg/mL]
71,18,–,–,–,–,–,–,–,–,–,–,–,"C[C@@H](O)[C@H]1C(=O)N2C(C(=O)O)=C(S[C@@H]3CN[C@H](C(=O)N(C)C)C3)[C@H](C)[C@H]12 [Compound C, Meropenem]",–,–
19,28,0.2,0.2,0.39,0.1,25,0.78,0.2,0.2,< 0.025,12.5,3.13,"CC(=N)N1CC[C@H](SC2=C(C(=O)O)N3C(=O)[C@H]([C@@H](C)O)[C@H]3C2)C1 [Compound B, Panipenem, reference compound]",–,–
95,90,0.1,0.05,0.2,0.05,6.25,0.39,0.05,0.05,< 0.025,0.78,0.39,"C[C@@H](O)[C@H]1C(=O)N2C(C(=O)O)=C(S[C@@H]3CN[C@H](Cc4cn5c[n+](CC(N)=O)cc5s4)C3)[C@H](C)[C@H]12 [Ex. 26, (1R,5S,6S)-2-[(3S,5S)-5-[6-(Carbamoylmethyl)imidazo[5,1-b]thiazolium-2-yl]methylpyrrolidin-3-yl]thio-6-((1R)-1-hydroxyethyl)-1-methylcarbapen-2-em-3-carboxylic acid iodide]",–,–

Structure (SMILES),remaining at 3 h [1] [%],remaining at 3 h [2] [%],MIC (K. pneumoniae PCI602) [µg/mL],MIC (C. freundii GN346) [µg/mL],MIC (S. marcescens No. 1) [µg/mL],MIC (E. coli NIHJ JC-2) [µg/mL],MIC (S. aureus M126) [µg/mL],MIC (M. morganii 1510) [µg/mL],MIC (E. coli GN206) [µg/mL],MIC (E. cloacae G-0008) [µg/mL],MIC (S. aureus 209P JC-1) [µg/mL],MIC (Ps. aeruginosa GN10362; [3]) [µg/mL],MIC (P. vulgaris GN76; [4]) [µg/mL],MIC (Ps. aeruginosa GN10362; GN10362) [µg/mL],MIC (P. vulgaris GN76; GN76) [µg/mL]
"C[C@@H](O)[C@H]1C(=O)N2C(C(=O)O)=C(SCCN=CN)C[C@H]12 [Compound A, Imipenem, reference compound]",24,0.6,0.39,0.1,0.39,0.1,50,0.78,0.1,0.1,< 0.025,–,–,1.56,3.13
